Laboratory results: patent US9371527B2, “Compositions and methods related to protein displacement therapy for myotonic distrophy” (University of Rochester, priority 2006, dated 2016)

Assays:
HSA^LR transgenic mice = experiment: Electromyography of myotonia after CAG25 morpholino; assay type: in vivo; conditions: p<0.001
Excerpt: FIG. 17 uses Electromyography to show the improvement of myotonia at 3 and 6 weeks after injection of CAG25 morpholino into tibialis anterior of HSA^LR transgenic mice. Myotonia is a state of muscle hyperexcitability in which muscle fibers display repetitive action potentials. Myotonia in the HSA^LR transgenic mouse model of myotonic dystrophy is caused by abnormal regulation of alternative splicing for ClC-1 and subsequent reduction of chloride ion channels in muscle fibers. A parallel abnormality of ClC-1 alternative splicing exists in human myotonic dystrophy. […] For each mouse, CAG25 morpholino dissolved in saline was injected into tibialis anterior muscle of one hindlimb, whereas saline alone was injected into tibialis anterior on the opposite side. The side of morpholino injection was randomly assigned. Electromyography was performed by a blinded examiner Severity of myotonia was graded on a 4 point scale: 0=no myotonic, 1=occasional myotonic discharge (fewer than 25% of needle insertions), 2=abundant myotonic discharges (25-75% of needle insertions), and 3=florid myotonia (myotonic discharges in nearly every needle insertion).

[1] = test system: ZASP alternative splicing; experiment: RT-PCR of ZASP alternative splicing after CAG25 morpholino; assay type: in vivo, HSA^LR transgenic mice; conditions: 3 weeks following CAG25 injection, tibialis anterior
Excerpt: Morpholino-treated muscle is indicated by “+”. Results from tibialis anterior in the opposite hindlimb, injected with saline alone, are indicated by “−”. The side of morpholino injection was randomly determined, and this assignment remained blinded until after the splicing analysis was completed.

ClC-1 chloride channel = experiment: ClC-1 immunofluorescence after CAG25 morpholino; assay type: in vivo, HSA^LR transgenic mice; conditions: 3 weeks following injection
Excerpt: Immunofluorescence for ClC-1 chloride channel is shown in sections of tibialis anterior muscle from HSA^LR transgenic mice. Muscle fibers show mosaic expression of ClC-1 in HSA^LR muscle injected with saline. Some of these fibers are completely lacking in ClC-1 protein.

[2] = test system: SERCA1 alternative splicing; experiment: RT-PCR of SERCA1 alternative splicing after CAG25 morpholino; assay type: in vivo, HSA^LR transgenic mice; conditions: 3 weeks following CAG25 injection, tibialis anterior, 4 mice
Excerpt: Morpholino-treated muscle is indicated by “+”. Results from tibialis anterior in the opposite hindlimb, injected with saline alone, are indicated by “−”. The side of morpholino injection was randomly determined, and this assignment remained blinded until after the splicing analysis was completed. Het. dupl. indicates a heteroduplex PCR product.

[3] = test system: ClC-1 exon 7a alternative splicing; experiment: RT-PCR of ClC-1 alternative splicing after CAG25 morpholino; assay type: in vivo, HSA^LR transgenic mice; conditions: tibialis anterior, vs saline contralateral
Excerpt: Adult wild-type (WT) mice show low levels of exon 7a inclusion. In HSA^LR transgenic mice, the fraction of ClC-1 splice products that include exon 7a is increased. Inclusion of exon 7a causes a frame shift and creates a premature termination codon that truncates most of the ClC-1 coding sequence. Of note, transcripts that include exon 7a have accelerated degradation via nonsense mediated decay, therefore they are underrepresented at steady state and on this gel. The higher bands on the gel are other alternative splice products, as shown (Mankodi et al, Molecular Cell 10:35-44, 2002.) In HSA^LR transgenic mice, injection of CAG morpholino into tibialis anterior improved the defect of ClC-1 alternative splicing. Morpholino-treated muscle is indicated by “+”. Results from tibialis anterior in the opposite hindlimb, injected with saline alone, are indicated by “−”.

[4] = test system: MBNL1 protein in ribonuclear foci; experiment: MBNL1 immunofluorescence after CAG25 morpholino injection into tibialis anterior; assay type: in vivo, HSA^LR transgenic mice; conditions: intramuscular injection + electroporation, vs saline contralateral
Description: The morpholino was compromised entirely of CAG repeats and was 25 nucleotides in length (CAG25). CAG25 morpholino dissolved in phosphate buffered saline was injected into tibialis anterior muscle of HSA^LR transgenic mice, followed by electroporation to facilitate entry into muscle cells. The contralateral tibialis anterior muscle was injected with saline alone, followed by electroporation. The distribution of MBNL1 in tibialis anterior was determined by immunofluorescence with anti-MBNL1 antibody A2764. In muscle injected with saline, MBNL1 was sequestered in ribonuclear foci (nuclei are counterstained with DAPI).

[5] = test system: recombinant MBNL1 protein with (CUG)109 RNA; experiment: Gel shift assay of MBNL1 with (CUG)109 RNA in presence of CAG25 morpholino; assay type: binding, human; conditions: increasing amounts of CAG25 morpholino
Excerpt: Interaction of recombinant MBNL1 protein with (CUG)109 RNA was examined by gel shift assay, in the presence of increasing amounts of CAG25 morpholino.
Also disclosed herein are methods involving the interaction of soluble, fluorescently-labeled MBNL1 protein with poly(CUG)^109 tethered at the surface of a microtiter plate. Different commercial microtiter plates for capacity to bind in vitro transcribed poly(CUG)^109 and background activity (non-specific binding of labeled MBNL1). For tethering poly(CUG)^109 to plates, a “capture” oligodeoxynucleotide (ODN) complementary to the A-rich 3′ terminus of the poly(CUG)^109 transcript, labeled either with biotin or a reactive group at the 5′ end for attachment to the plate (shown in FIG. 3C in the case of biotin) was used. […] Next, the concentration of capture ODN that saturates binding sites (12.5 pmoles/100 μl/well) and the concentration of poly(CUG)^109 that saturates the capture ODN (of 5 pmole added per well, 0.5 pmole was bound to capture ODN) were determined. Additionally, conditions for fluorescence labeling of MBNL1 protein via conjugation between primary amines on protein and fluorescein-EX dyes (Molecular Probes) were determined. The detection threshold and range of linearity was determined for labeled protein in gels and microplates (FIG. 2B). […]

[6] = test system: interaction of (CUG)109 RNA with MBNL1 protein; experiment: Non-denaturing gel: PNA-CAG displacement of MBNL1 from (CUG)109 RNA; assay type: binding; conditions: PNA 4-0.25 μM, then MBNL1 200 nM 30 min
Description: (§1) FIGS. 30A and 30B show protein displacement therapy with peptide nucleic acid (PNA) oligomers composed of CAG repeats.
(§2) Previously it was shown that expanded CUG repeat RNA forms stable hairpin structures (Tian B, et al. RNA 2000; 6:79-87). […] This transcript was incubated 30 min with different concentrations (8, 4, 2, 1, 0.5, 0.25 μM) of PNAs containing different length of CAG repeat sequence (PNA-CAG-6, Nterm-CAGCAG; PNA-CAG-9, Nterm-CAGCAGCAG; PNA-CAG-12, Nterm-CAGCAGCAGCAG (SEQ ID NO: 14); or PNA-CAG-15, Nterm-CAGCAGCAGCAGCAG) (SEQ ID NO: 15). FIG. 30B provides a variation including 5 PNA concentrations (4, 2, 1, 0.5, 0.25 μM) and after additional 30 min incubation step with recombinant MBNL1 (200 nM). Lane “C” in each panel is a control showing migration of fluorescein-labeled (CUG)109 transcript without PNA or MBNL1. Rapid migration of this transcript is caused by hairpin formation. […] Lanes “C+” in panel “B” show controls that contain (CUG)109 transcript and MBNL1 protein without PNA. These lanes show diffuse smear of (CUG)109 transcript, due to formation of heterogenous high molecular weight RNA-protein complexes. Addition of PNA displaces the MBNL1 protein from expanded CUG repeat RNA, disrupting these complexes and reconstituting a sharp band of (CUG)109 transcript. […]

(CUG)109 hairpins = experiment: Non-denaturing gel: PNA-CAG interaction with fluorescein-labeled (CUG)109 transcript; assay type: binding; conditions: (CUG)109 10 nM, PNA 8-0.25 μM, 30 min
Description: as §1, §2

[7] = molecular target: T1, interaction of recombinant MBNL1 protein with (CUG)109 RNA (Homo sapiens, UniProt Q9NR56); experiment: Filter binding screening assay for inhibitors of MBNL1-(CUG)109 RNA interaction; conditions: compound+(CUG)109 RNA 5 minutes, then recombinant MBNL1 15 minutes, among 9 aminoglycoside compounds tested
T1 construct: GST (with Prescission protease cleavage site) (N); made in house; host or cells: E. coli BL21(DE3)
Description: The order of addition was compound+(CUG)109 RNA (incubate 5 minutes), followed by recombinant MBNL1 protein (15 minute incubation), followed by application to filter.
Next, optimal conditions were defined (ionic-strength, monovalent cations, Mg^++ and other additions, temperature) for MBNL1-poly(CUG)^109 binding in solution. All forms of recombinant MBNL1 that were tested (GST fused or cleaved, full-length or truncation of C terminal hydrophobic region, 41 or 42 kD isoform) bind to poly(CUG)^109 at low protein concentration (FIG. 3, Kd values ˜10 nM), as determined by nitrocellulose filter binding assays. In this assay, nonspecific binding of labeled RNA to nitrocellulose was very low (<0.2% of maximal positive signal). As described below, disclosed herein are methods comprising a non-radioactive microtiter plate filter binding assay similar to the one used to examine binding activities of different forms of recombinant MBNL1 in FIG. 3.
The two components of this assay, fluorescence-labeled poly(CUG)^109 (FIG. 2B) and recombinant MBNL1 (FIG. 2A), have been developed and optimal conditions for MBNL1 binding to poly(CUG)^exp have been defined (50 mM Tris pH 8.0, 50 mM NaCl, 50 mM KCl, 1 mM Mg^++, 0.1 mM DTT) (see Preliminary Studies). Pilot binding assays have been carried out using nitrocellulose filters (FIG. 3A). […]

[8] = molecular target: T2, interaction of CUG repeat RNA with recombinant MBNL1 protein (Homo sapiens, UniProt Q9NR56); experiment: Fluorescence anisotropy assay for inhibitors of CUG repeat RNA-MBNL1 interaction; assay type: binding; conditions: (CUG)36 transcript 2 nM, aminoglycoside 10 or 50 μM, MBNL1 100 nM
T2 construct: GST (with Prescission protease cleavage site) (N); made in house; host or cells: E. coli BL21(DE3)
Description: Fluorescein-labeled (CUG)36 transcript (2 nM) was incubated first with aminoglycoside compound (10 or 50 μM) and then with excess amount of recombinant MBNL1 protein (100 nM). To calculate the fraction of CUG repeat RNA that remains bound to MBNL1 protein (“% bound CUG^exp”, vertical axis), results are expressed as the percentage of maximal fluorescence anisotropy in assays from which aminoglycosides were omitted. […] Values are the average +/−SD from three measurements.
Fluorescein-labeled (CUG)36 RNA (2 nM) was incubated with MBNL1 protein (100 nM) and anisotropy was measured at time points ranging from 1 to 90 minutes. Increasing values for fluorescence anisotropy indicate interaction of fluorescein-labeled (CUG)36 transcript with MBNL1 protein.
MBNL1 protein is known to bind CUG repeat RNAs that form a stable secondary structure (hairpin structure). Aminoglycoside antibiotics were examined to determine whether these compounds can inhibit the interaction of MBNL1 protein with CUG repeat RNA. Aminoglycosides were selected because they are known to bind structured RNA. […] To calculate the fraction of CUG repeat RNA that remains bound to MBNL1 protein (“% bound CUG^exp”, vertical axis), results are expressed as the percentage of maximal fluorescence anisotropy in assays from which aminoglycosides were omitted. […]

T1 sequence (Q9NR56 1-382 isoform Q9NR56-5): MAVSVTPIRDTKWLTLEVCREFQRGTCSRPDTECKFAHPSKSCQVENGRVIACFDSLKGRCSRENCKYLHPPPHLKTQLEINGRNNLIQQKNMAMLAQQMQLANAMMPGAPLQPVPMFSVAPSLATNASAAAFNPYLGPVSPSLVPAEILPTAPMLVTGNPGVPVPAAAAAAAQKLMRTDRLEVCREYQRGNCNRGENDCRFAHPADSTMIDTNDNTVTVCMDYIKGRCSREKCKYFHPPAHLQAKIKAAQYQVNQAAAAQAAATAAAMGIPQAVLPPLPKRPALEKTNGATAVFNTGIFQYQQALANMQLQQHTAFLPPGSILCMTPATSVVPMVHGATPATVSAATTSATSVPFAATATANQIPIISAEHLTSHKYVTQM
T2 sequence (Q9NR56 1-382 isoform Q9NR56-5): as above

Substance: CAG25 morpholino: morpholino comprised entirely of CAG repeats, 25 nucleotides in length (antisense AGCAGCAGCAGCAGCAGCAGCAGCA; all phosphorodiamidate morpholino (PMO))
- myotonia severity (EMG) (HSA^LR transgenic mice; 3 weeks after injection): significant reduction of myotonia
- myotonia severity (EMG) (HSA^LR transgenic mice; 6 weeks after injection): significant reduction of myotonia
- ZASP alternative splicing [1]: improved regulation of alternative splicing for ZASP
- expression of ClC-1 chloride channel at the surface membrane (ClC-1 chloride channel): increased expression ClC-1 protein at the surface membrane
- SERCA1 alternative splicing [2]: improved the defect of SERCA1 alternative splicing
- ClC-1 alternative splicing (exon 7a) [3]: improved the alternative splicing of ClC-1
- distribution of MBNL1 in tibialis anterior nuclei [4]: more widely distributed throughout the nucleus
- inhibition of interaction of MBNL1-poly(CUG)^exp RNA in vitro [5]: inhibits the interaction

Substance: PNA-CAG-12: peptide nucleic acid Nterm-CAGCAGCAGCAG (all peptide nucleic acid (PNA))
- inhibition of interaction of (CUG)109 RNA with MBNL1 protein [6]: inhibit the interaction of (CUG)109 RNA with MBNL1 protein
- interaction with expanded CUG repeat hairpin structures (gel migration of (CUG)109 transcript) ((CUG)109 hairpins): can invade (CUG)109 hairpins

Substance: PNA-CAG-15: peptide nucleic acid Nterm-CAGCAGCAGCAGCAG (all peptide nucleic acid (PNA))
- inhibition of interaction of (CUG)109 RNA with MBNL1 protein [6]: inhibit the interaction of (CUG)109 RNA with MBNL1 protein
- interaction with expanded CUG repeat hairpin structures (gel migration of (CUG)109 transcript) ((CUG)109 hairpins): can invade (CUG)109 hairpins

Substance: gentamicin
- activity to inhibit formation of MBNL1-poly(CUG)^exp RNA-protein complexes [7]: highest activity

Substance: neomycin
- inhibition of MBNL1 binding to CUG repeat RNA (% bound CUG^exp) [8]: strongest inhibition
- activity to inhibit formation of MBNL1-poly(CUG)^exp RNA-protein complexes [7]: highest activity
